Reference: patent publication US10336762B2 (priority 2017, dated 2019)

What was measured:
TNFα = test: cells; format: cell-based, human; settings: Homo sapiens, Monocyte, LPS-stimulated human monocytes, TNFα by TR-FRET; read-out: EC50 TNF
IRAK4 enzyme = IRAK4 enzyme (Homo sapiens (Human), UniProt Q9NWZ3); test: biochemical; format: biochemical; settings: IRAK4 enzyme, TR-FRET, 500 μM ATP
Sequence of IRAK4 enzyme (Q9NWZ3 whole entry): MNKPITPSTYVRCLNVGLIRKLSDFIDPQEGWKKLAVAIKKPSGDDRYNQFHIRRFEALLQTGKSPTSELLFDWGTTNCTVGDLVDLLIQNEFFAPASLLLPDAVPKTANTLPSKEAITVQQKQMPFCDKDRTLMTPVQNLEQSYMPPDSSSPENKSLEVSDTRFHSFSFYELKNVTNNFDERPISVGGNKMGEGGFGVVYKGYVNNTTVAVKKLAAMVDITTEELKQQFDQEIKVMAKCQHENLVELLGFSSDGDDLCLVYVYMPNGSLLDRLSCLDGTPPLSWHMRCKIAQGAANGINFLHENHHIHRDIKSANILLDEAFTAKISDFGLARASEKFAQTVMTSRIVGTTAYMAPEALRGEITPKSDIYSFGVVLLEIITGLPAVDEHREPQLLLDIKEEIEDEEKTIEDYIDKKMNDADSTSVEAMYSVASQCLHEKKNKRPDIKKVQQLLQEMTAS

SMILES | EC50 (TNFα) [nM] | IC50 (IRAK4 enzyme) [nM]
Cn1nccc1CNC(=O)c1cnc(-c2ccc3cc(C#N)cnn23)cc1NC12CCC(O)(CC1)CC2 [Example 934, 6-(3-cyanopyrrolo[1,2-b]pyridazin-7-yl)-4-((4-hydroxybicyclo[2.2.2]octan-1-yl)amino)-N-((1-methyl-1H-pyrazol-5-yl)methyl)nicotinamide] | 271 | 3
Cn1ccc(CNC(=O)c2cnc(-c3ccc4cc(C#N)cnn34)cc2NC23CCC(O)(CC2)CC3)n1 [Example 935, 6-(3-cyanopyrrolo[1,2-b]pyridazin-7-yl)-4-((4-hydroxybicyclo[2.2.2]octan-1-yl)amino)-N-((1-methyl-1H-pyrazol-3-yl)methyl)nicotinamide] | 153 | 2
CC(C)(O)[C@H](F)CNC(=O)c1cnc(-c2ccc3cc(C#N)cnn23)cc1-n1cc(-c2cnc(N)cn2)cn1 [Example 936, (R)-4-(4-(5-aminopyrazin-2-yl)-1H-pyrazol-1-yl)-6-(3-cyanopyrrolo[1,2-b]pyridazin-7-yl)-N-(2-fluoro-3-hydroxy-3-methylbutyl) nicotinamide] | > 10000 | 147
CC(C)(O)[C@H](F)CNC(=O)c1cnc(-c2ccc3cc(C#N)cnn23)cc1N[C@H]1C[C@H](CNC(=O)C23CC(C2)C3)C1 [Example 937, 4-(((1r,3R)-3-((bicyclo[1.1.1]pentane-1-carboxamido)methyl)cyclobutyl)amino)-6-(3-cyanopyrrolo[1,2-b]pyridazin-7-yl)-N-((R)-2-fluoro-3-hydroxy-3-methylbutyl)nicotinamide] | 133 | 2
CC(C)C(=O)NC[C@H]1C[C@H](Nc2cc(-c3ccc4cc(C#N)cnn34)ncc2C(=O)NC[C@@H](F)C(C)(C)O)C1 [Example 938, 6-(3-cyanopyrrolo[1,2-b]pyridazin-7-yl)-N-((R)-2-fluoro-3-hydroxy-3-methylbutyl)-4-(((1r,3R)-3-(isobutyramidomethyl)cyclobutyl)amino) nicotinamide] | 68 | 1
CC(C)(O)[C@H](F)CNC(=O)c1cnc(-c2ccc3cc(C#N)cnn23)cc1-n1cc(-c2ccc(N)cn2)cn1 [Example 939, (R)-4-(4-(5-aminopyridin-2-yl)-1H-pyrazol-1-yl)-6-(3-cyanopyrrolo[1,2-b]pyridazin-7-yl)-N-(2-fluoro-3-hydroxy-3-methyl-butyl)nicotinamide] | > 10000 | 642
CC(C)(O)[C@H](F)CNC(=O)c1cnc(-c2ccc3cc(C#N)cnn23)cc1N[C@H]1C[C@H](CNC(=O)C2CC(F)(F)C2)C1 [Example 940, 6-(3-cyanopyrrolo[1,2-b]pyridazin-7-yl)-4-(((1r,3R)-3-((3,3-difluorocyclobutane-1-carboxamido)methyl)cyclobutyl)amino)-N-((R)-2-fluoro-3-hydroxy-3-methylbutyl)nicotinamide] | 44 | < 1
CC(C)(O)[C@H](F)CNC(=O)c1cnc(-c2ccc3cc(C#N)cnn23)cc1N[C@H]1C[C@H](CNC(=O)C2CC2F)C1 (stereo partly drawn) [Example 941, 6-(3-cyanopyrrolo[1,2-b]pyridazin-7-yl)-N-((R)-2-fluoro-3-hydroxy-3-methylbutyl)-4-(((1R,3R)-3-(((1R,2R)-2-fluorocyclo-propane-1-carboxamido)methyl)cyclobutyl)amino) nicotinamide] | 19 | < 1
C[C@H](NC(=O)c1cnc(-c2ccc3cc(C#N)cnn23)cc1NC12CCC(O)(CC1)CC2)C(=O)N1CC(F)(F)C1 [Example 942, (S)-6-(3-cyanopyrrolo[1,2-b]pyridazin-7-yl)-N-(1-(3,3-difluoroazetidin-1-yl)-1-oxopropan-2-yl)-4-((4-hydroxybicyclo[2.2.2]octan-1-yl)amino) nicotinamide] | 587 | 8
C[C@H](NC(=O)c1cnc(-c2ccc3cc(C#N)cnn23)cc1NC12CCC(O)(CC1)CC2)C(=O)N1CCOCC1 [Example 943, (S)-6-(3-cyano-pyrrolo[1,2-b]pyridazin-7-yl)-4-((4-hydroxy-bicyclo[2.2.2]octan-1-yl)amino)-N-(1-morpholino-1-oxopropan-2-yl) nicotinamide] | 836 | 35
N#Cc1cnn2c(-c3cc(NC45CCC(O)(CC4)CC5)c(C(=O)NCC(=O)N4CCC(O)C4)cn3)ccc2c1 [Example 944, (S)-6-(3-cyano-pyrrolo[1,2-b]pyridazin-7-yl)-4-((4-hydroxy-bicyclo[2.2.2]octan-1-yl)amino)-N-(2-(3-hydroxypyrrolidin-1-yl)-2-oxoethyl) nicotinamide] | 209 | < 1
CNC(=O)[C@H](F)CNC(=O)c1cnc(-c2ccc3cc(C#N)cnn23)cc1NC12CCC(O)(CC1)CC2 [Example 945, (R)-6-(3-cyanopyrrolo[1,2-b]pyridazin-7-yl)-N-(2-fluoro-3-(methylamino)-3-oxopropyl)-4-((4-hydroxybicyclo[2.2.2]octan-1-yl)amino) nicotinamide] | 116 | 1
CN(C)C(=O)[C@H](F)CNC(=O)c1cnc(-c2ccc3cc(C#N)cnn23)cc1NC12CCC(O)(CC1)CC2 [Example 946, (R)-6-(3-cyanopyrrolo[1,2-b]pyridazin-7-yl)-N-(3-(dimethylamino)-2-fluoro-3-oxopropyl)-4-((4-hydroxybicyclo[2.2.2]octan-1-yl)amino) nicotinamide] | 120 | 1
N#Cc1cnn2c(-c3cc(NC45CCC(O)(CC4)CC5)c(C(=O)NC[C@@H](F)C(=O)N4CC(F)(F)C4)cn3)ccc2c1 [Example 947, (R)-6-(3-cyanopyrrolo[1,2-b]pyridazin-7-yl)-N-(3-(3,3-difluoroazetidin-1-yl)-2-fluoro-3-oxopropyl)-4-((4-hydroxybicyclo[2.2.2]octan-1-yl)amino) nicotinamide] | 207 | < 1
CN1CCN(C(=O)[C@H](F)CNC(=O)c2cnc(-c3ccc4cc(C#N)cnn34)cc2NC23CCC(O)(CC2)CC3)CC1 [Example 948, (R)-6-(3-cyanopyrrolo[1,2-b]pyridazin-7-yl)-N-(2-fluoro-3-(4-methylpiperazin-1-yl)-3-oxopropyl)-4-((4-hydroxybicyclo[2.2.2]octan-1-yl)amino) nicotinamide] | 282 | 3
COC(=O)C1(NC(=O)c2cnc(-c3ccc4cc(C#N)cnn34)cc2NC23CCC(O)(CC2)CC3)CC1 [Example 949, methyl 1-(6-(3-cyano-pyrrolo[1,2-b]pyridazin-7-yl)-4-((4-hydroxy-bicyclo[2.2.2]octan-1-yl)amino)nicotinamido) cyclopropane-1-carboxylate] | 62 | 1
CC1(NC(=O)c2cnc(-c3ccc4cc(C#N)cnn34)cc2NC23CCC(O)(CC2)CC3)CC1 [Example 950, 6-(3-cyanopyrrolo[1,2-b]pyridazin-7-yl)-4-((4-hydroxybicyclo[2.2.2]octan-1-yl)amino)-N-(1-methylcyclopropyl) nicotinamide] | 70 | 1
N#Cc1cnn2c(-c3cc(NC45CCC(O)(CC4)CC5)c(C(=O)NC4(C(F)F)CC4)cn3)ccc2c1 [Example 951, 6-(3-cyanopyrrolo[1,2-b]pyridazin-7-yl)-N-(1-(difluoromethyl)cyclopropyl)-4-((4-hydroxybicyclo[2.2.2]octan-1-yl)amino) nicotinamide] | 159 | 2
COC(=O)NC[C@H]1C[C@H](Nc2cc(-c3ccc4cc(C#N)cnn34)ncc2C(=O)NCC(=O)N2CC(F)(F)C2)C1 [Example 952, methyl (((1r,3r)-3-((2-(3-cyanopyrrolo[1,2-b]pyridazin-7-yl)-5-((2-(3,3-difluoroazetidin-1-yl)-2-oxoethyl)carbamoyl)pyridin-4-yl)amino)cyclo-butyl)methyl)carbamate] | 62 | < 1
N#Cc1cnn2c(-c3cc(NC45CCC(O)(CC4)CC5)c(C(=O)NCC(=O)N4CC[C@@H](O)C4)cn3)ccc2c1 [Example 953, (R)-6-(3-cyanopyrrolo[1,2-b]pyridazin-7-yl)-4-((4-hydroxybicyclo[2.2.2]octan-1-yl)amino)-N-(2-(3-hydroxypyrrolidin-1-yl)-2-oxoethyl) nicotinamide] | 240 | < 1
CC1(O)CN(C(=O)CNC(=O)c2cnc(-c3ccc4cc(C#N)cnn34)cc2NC23CCC(O)(CC2)CC3)C1 [Example 954, 6-(3-cyanopyrrolo[1,2-b]pyridazin-7-yl)-N-(2-(3-hydroxy-3-methylazetidin-1-yl)-2-oxoethyl)-4-((4-hydroxybicyclo[2.2.2]octan-1-yl)amino) nicotinamide] | 213 | < 1
N#Cc1cnn2c(-c3cc(NC45CCC(O)(CC4)CC5)c(C(=O)N[C@H]4CNC4=O)cn3)ccc2c1 [Example 955, (S)-6-(3-cyanopyrrolo[1,2-b]pyridazin-7-yl)-4-((4-hydroxybicyclo[2.2.2]octan-1-yl)amino)-N-(2-oxo-azetidin-3-yl)nicotinamide] | 399 | < 1
CC(C)(O)[C@H](F)CNC(=O)c1cnc(-c2ccc3cc(C#N)cnn23)cc1Nc1ccc(-c2cn[nH]c2)cn1 [Example 956, (R)-4-((5-(1H-pyrazol-4-yl)pyridin-2-yl)amino)-6-(3-cyanopyrrolo[1,2-b]pyridazin-7-yl)-N-(2-fluoro-3-hydroxy-3-methyl-butyl)nicotinamide] | 31 | < 1
N#Cc1cnn2c(-c3cc(NC45CCC(O)(CC4)CC5)c(C(=O)N[C@H]4CCCNC4=O)cn3)ccc2c1 [Example 957, (S)-6-(3-cyanopyrrolo[1,2-b]pyridazin-7-yl)-4-((4-hydroxybicyclo[2.2.2]octan-1-yl)amino)-N-(2-oxo-piperidin-3-yl)nicotinamide] | 173 | < 1
N#Cc1cnn2c(-c3cc(NC45CCC(O)(CC4)CC5)c(C(=O)N[C@@H]4CCCNC4=O)cn3)ccc2c1 [Example 958, (R)-6-(3-cyanopyrrolo[1,2-b]pyridazin-7-yl)-4-((4-hydroxybicyclo[2.2.2]octan-1-yl)amino)-N-(2-oxo-piperidin-3-yl)nicotinamide] | 219 | 1
